{"source": "patent US20250115582A1", "about": "“MOLECULAR GLUE DEGRADERS AND METHODS OF USING THE SAME” (Monte Rosa Therapeutics, Inc., priority 2022, published 2025)", "key": {"[1]": {"target": "CRBN/DDB1 (Homo sapiens, UniProt Q96SW2)", "sequence (Q96SW2 whole entry)": "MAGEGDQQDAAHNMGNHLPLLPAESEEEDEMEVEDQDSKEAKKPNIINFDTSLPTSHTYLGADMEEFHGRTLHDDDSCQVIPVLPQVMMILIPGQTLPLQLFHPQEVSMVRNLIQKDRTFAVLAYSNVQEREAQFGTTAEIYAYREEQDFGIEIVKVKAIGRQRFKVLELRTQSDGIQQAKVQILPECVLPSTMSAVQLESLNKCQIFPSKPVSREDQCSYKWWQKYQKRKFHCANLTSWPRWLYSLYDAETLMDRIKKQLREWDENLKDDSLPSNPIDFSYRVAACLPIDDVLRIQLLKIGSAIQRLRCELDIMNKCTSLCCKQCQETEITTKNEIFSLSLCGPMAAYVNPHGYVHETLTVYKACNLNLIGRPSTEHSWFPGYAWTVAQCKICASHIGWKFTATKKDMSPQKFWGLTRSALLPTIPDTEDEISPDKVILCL", "sequence (Q16531 whole entry partner)": "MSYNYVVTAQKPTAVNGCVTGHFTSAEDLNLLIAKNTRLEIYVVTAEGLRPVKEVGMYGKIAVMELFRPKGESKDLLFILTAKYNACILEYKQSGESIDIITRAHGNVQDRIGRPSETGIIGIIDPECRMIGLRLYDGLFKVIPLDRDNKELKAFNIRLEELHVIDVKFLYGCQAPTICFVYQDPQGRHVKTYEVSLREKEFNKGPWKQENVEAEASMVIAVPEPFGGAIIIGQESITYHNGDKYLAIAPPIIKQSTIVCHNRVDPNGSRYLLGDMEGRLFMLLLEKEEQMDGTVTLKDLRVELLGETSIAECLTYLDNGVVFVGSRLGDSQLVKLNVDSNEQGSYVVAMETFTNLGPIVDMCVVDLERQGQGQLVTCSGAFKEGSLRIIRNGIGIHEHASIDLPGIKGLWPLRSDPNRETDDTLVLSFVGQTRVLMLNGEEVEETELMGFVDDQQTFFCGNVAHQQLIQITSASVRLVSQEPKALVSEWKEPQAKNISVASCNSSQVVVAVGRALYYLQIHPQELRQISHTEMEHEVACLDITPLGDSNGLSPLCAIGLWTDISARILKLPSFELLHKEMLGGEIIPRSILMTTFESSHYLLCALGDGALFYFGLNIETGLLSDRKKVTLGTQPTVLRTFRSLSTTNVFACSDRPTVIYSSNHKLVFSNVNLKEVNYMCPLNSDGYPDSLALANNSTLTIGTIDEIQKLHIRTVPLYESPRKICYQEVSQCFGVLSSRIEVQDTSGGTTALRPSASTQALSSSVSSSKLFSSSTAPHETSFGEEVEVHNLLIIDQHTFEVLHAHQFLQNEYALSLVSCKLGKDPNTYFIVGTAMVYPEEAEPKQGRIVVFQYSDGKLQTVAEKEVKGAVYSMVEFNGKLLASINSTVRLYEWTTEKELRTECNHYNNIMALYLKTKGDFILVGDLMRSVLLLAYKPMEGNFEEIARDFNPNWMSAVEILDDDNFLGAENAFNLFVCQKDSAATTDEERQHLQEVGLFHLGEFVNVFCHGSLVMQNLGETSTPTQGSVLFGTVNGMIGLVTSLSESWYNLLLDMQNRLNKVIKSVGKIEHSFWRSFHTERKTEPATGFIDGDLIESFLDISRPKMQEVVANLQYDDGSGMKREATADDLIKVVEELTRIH", "experiment": "HTRF binding assay (thalidomide probe displacement from CRBN/DDB1)", "conditions": "CRBN/DDB1 2.5 nM, Cy5-Thalidomide 100 nM, 30 min; geometric mean; read-out: HTRF_Thali_Disp_DR—geo_IC50", "source_text": "Binding of test compounds to CRBN/DDB1 was monitored in an HTRF assay using 1-[5-({2-[2-(2-{[2-(2,6-dioxopiperidin-3-yl)-1,3-dioxo-2,3-dihydro-1H-isoindol-4-yl]oxy}acetamido)ethoxy]ethyl}carbamoyl)pentyl]-3,3-dimethyl-2-[(1E,3E)-5-[(2E)-1,3,3-trimethyl-5-sulfo-2,3-dihydro-1H-indol-2-ylidene]penta-1,3-dien-1-yl]-3H-indol-1-ium-5-sulfonate as a fluorescent probe. In this assay, compounds displace the fluorescently labeled thalidomide-based probe bound to CRBN and fluorescence is monitored with increasing compound concentration. Assays were conducted in Greiner white 384 well HiBase plates (Cat. No 784075-25) in 10 μL total volume. A one pot detection solution of CRBN/DDB1 (2.5 nM), anti-His Terbium Cryptate Gold (1×, PerkinElmer Cat. #: 61HI2TLB), and Cy5-Thalidomide (100 nM, Tenova Cat.: T52461) was prepared in 20 mM HEPES, 20 mM NaCl, 0.2 mM TCEP, 0.2 mM EDTA, and 0.005% Tween20 was dispensed to each assay plate. Test compounds were stored in dry, ambient temperatures at 10 mM. A 10-point, 1:3 dilution series was prepared from 10 mM stock concentrations in Echo-compatible LDV plates. 10 nL of each compound dilution series was dispensed into assays wells using an Echo 650 (Labcyte inc. USA). 10 nL of 10 mM lenalidomide (Selleckchem Cat no. S1029) was transferred into the active-control wells for the assay and 10 nL of DMSO was transferred into the negative control wells. The assay was then allowed to incubate for 30 min at ambient temperature after transferring the test compounds. Plate measurements were taken on a Pherastar FSX (BMG Labtech, Germany) using the HTRF Red filter (Ex. 337 nm, eml: 620 nm, em2: 665 nm) (Flashes: 50, Integration time: 60-400 μs, Z-height: 10 mm, Ratio-multiplier: 10,000). Analysis, HTRF ratio and IC50 values were derived using KNIME analytics (KNIME Zurich) transformation and fitting within Collaborative Drug Discovery (Collaborative Drug Discovery USA) using a 4-parameter logistic fit. HTRF ratio calculation was performed using the following formula: […]\nwhere em665nm represents the measured emission at 665 nm upon excitation at 337 nm and em620nm the measured emission at 620 nm upon excitation at 337 nm. The 4 parameter logistic fitting model was performed using the following formula: […]\nwhere Y represents the HTRF ratio response (as defined previously), X the compound concentration in μM, Ymin the minimum response plateau, Ymax the maximum response plateau, IC50 the concentration of agonist that gives a response half way between Ymin and Ymax and HillSlope the steepness of the family of curves. No fitting model constraints was applied on Ymin, or Ymax whilst IC50>0 and −0.5>HillSlope>−3\nKi values were derived from the geometric mean of the IC50 values using the Cheng-Prusoff transformation:\nwhere [L] represents the concentration of fluorescent probe in μM, Kd the affinity (binding constant) of the fluorescent probe in units of μM and IC50 the concentration of agonist that gives a response halfway between Ymin and Ymax (as described in 1.2.1)\nAnalysis and IC50 values were derived using KNIME analytics (KNIME, Zurich) transformation and fitting within Collaborative Drug Discovery (Collaborative Drug Discovery, USA) as described in 1.2.1. Ki values were derived from the geometric mean of the IC50 values using the Cheng-Prusoff transformation as described in 2.2.2. Data was visualized in GraphPad Prism 8.1.2 (GraphPad, USA) and reported as mean and standard deviation. Microsoft Office Excel 2012 (Redmond, WA) was used for calculation of mean and standard deviation.\nIC50 data are reported in Table 3 for compounds in Table 1. In Table 3 below, According to the code, A represents a IC50 value of ≤0.1 μM, B represents a IC50 value≥0.1 μM and ≤1 μM, C represents an IC50 value>1 μM."}, "[2]": {"tested_on": "GP2D", "experiment": "GI50 growth inhibition, CyQUANT, GP2D", "assay_type": "cell-based", "conditions": "GP2D cells, 120 to 168 hours", "method": "(§1) SKCO1, LS180, and LS174T cell lines were purchased from ATCC. CW2 cell line was purchased from Riken. GP2D cell line was purchased from Sigma/ECACC. All cell lines were cultured in manufacturer's recommended media at 37° C., 5% CO2. Briefly, cells were suspended in 200 μL of media and seeded at 300 to 1,800 cells per well in tissue culture treated 96-well plates with black walls and clear bottom. Plates were incubated overnight and initial (T0) read was performed the following day using CyQUANT Direct Cell Proliferation Assay Kit (Thermo Fisher Scientific) according to manufacturer's protocol. All compounds were solubilized in DMSO and prepared at 3-fold serial dilution, using 9 points starting at 30 μM as highest concentration, administered to cells and incubated for 120 to 168 hours, at which point CyQUANT assay measurement was performed using Acumen Cellista instrument (Ex/Em 480/520 nm). Media-only wells were used as blank, and 0.3% DMSO was used as DMSO-treated cell control. Growth inhibition (percent response) was calculated using the following formula in Excel: “=if ([Compound treated Day N]>[Untreated Day 0, AVG], ([Compound treated Day N]−[Untreated Day 0, AVG])/([Untreated Day N]−[Untreated Day 0, AVG])*100, ([Compound Treated Day N]−[Untreated Day 0, AVG])/([Untreated Day 0, AVG])*100)”. GI50 is the response corresponding to the 50% of untreated control.\n(§2) GI50 data are reported in Tables 4a, 4b, 4c, 4d, and 4e for compounds in Table 1. In Tables 4a, 4b, 4c, 4d, and 4e below, According to the code, A represents a GI50 value of ≤0.1 μM, B represents a GI50 value>0.1 μM and ≤1 μM, C represents an GI50 value>1 μM."}, "[3]": {"tested_on": "LS174T", "experiment": "GI50 growth inhibition, CyQUANT, LS174T", "assay_type": "cell-based", "conditions": "Homo sapiens, LS174T cells, 120 to 168 hours", "method": "as §1, §2"}, "[4]": {"tested_on": "CW2", "experiment": "GI50 growth inhibition, CyQUANT, CW2", "assay_type": "cell-based", "conditions": "Homo sapiens, CW-2, CW2 cells, 120 to 168 hours", "method": "as §1, §2"}, "[5]": {"target": "T1, CK1α (Homo sapiens, UniProt P48729+Q96SW2)", "T1 construct": "HEK293 clonal line with CRISPR KI HiBiT tag on CSNK1A1; host or cells: HEK293 clonal line, CRISPR HiBiT knock-in at CSNK1A1, stably expressing LgBiT", "T1 sequence (P48729 whole entry)": "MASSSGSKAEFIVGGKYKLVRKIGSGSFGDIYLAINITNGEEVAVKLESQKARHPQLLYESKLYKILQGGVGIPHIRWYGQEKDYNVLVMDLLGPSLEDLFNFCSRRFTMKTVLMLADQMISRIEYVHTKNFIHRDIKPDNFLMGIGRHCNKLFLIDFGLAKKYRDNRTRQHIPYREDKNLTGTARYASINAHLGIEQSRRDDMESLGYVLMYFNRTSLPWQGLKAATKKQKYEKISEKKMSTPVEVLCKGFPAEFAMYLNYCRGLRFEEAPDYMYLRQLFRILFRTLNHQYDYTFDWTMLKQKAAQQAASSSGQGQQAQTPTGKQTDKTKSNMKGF", "T1 sequence (Q96SW2 whole entry)": "as the sequence (Q96SW2 whole entry) above", "T1 sequence (Q16531 2-1140 partner limits assumed)": "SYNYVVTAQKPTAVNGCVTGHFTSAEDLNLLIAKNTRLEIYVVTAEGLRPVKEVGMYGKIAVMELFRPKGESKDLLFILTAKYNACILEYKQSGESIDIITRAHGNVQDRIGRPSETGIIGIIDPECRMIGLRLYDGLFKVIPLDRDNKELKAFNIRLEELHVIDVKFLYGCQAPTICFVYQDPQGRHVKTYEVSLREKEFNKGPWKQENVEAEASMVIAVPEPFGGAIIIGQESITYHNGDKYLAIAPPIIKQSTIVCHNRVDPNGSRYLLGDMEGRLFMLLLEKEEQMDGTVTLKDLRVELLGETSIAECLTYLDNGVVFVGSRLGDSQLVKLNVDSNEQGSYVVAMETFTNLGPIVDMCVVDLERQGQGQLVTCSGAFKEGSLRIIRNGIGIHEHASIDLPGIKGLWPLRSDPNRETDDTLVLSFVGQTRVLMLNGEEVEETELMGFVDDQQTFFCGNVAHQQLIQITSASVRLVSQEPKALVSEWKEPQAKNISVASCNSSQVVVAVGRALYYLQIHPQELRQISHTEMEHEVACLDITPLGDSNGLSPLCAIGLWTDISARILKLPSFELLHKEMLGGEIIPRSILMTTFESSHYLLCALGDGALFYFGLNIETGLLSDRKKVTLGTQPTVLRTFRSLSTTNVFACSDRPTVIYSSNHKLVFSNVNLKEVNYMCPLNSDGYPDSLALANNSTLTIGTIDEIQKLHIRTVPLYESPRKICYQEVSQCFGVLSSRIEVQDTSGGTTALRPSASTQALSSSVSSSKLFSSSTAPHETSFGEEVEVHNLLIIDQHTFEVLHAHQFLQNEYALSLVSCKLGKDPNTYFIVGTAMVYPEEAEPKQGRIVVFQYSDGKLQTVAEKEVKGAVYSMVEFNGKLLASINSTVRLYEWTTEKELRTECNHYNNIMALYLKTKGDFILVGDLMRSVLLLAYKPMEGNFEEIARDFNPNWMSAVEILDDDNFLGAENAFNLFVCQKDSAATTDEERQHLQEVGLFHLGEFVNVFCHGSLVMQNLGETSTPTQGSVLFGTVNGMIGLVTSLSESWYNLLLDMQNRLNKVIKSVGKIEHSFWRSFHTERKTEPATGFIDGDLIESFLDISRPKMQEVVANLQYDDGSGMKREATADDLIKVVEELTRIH", "experiment": "CK1α NanoBiT assay (HiBiT-tagged CSNK1A1 in HEK293 clonal line)", "assay_type": "cell-based", "conditions": "HEK293 HiBiT-CSNK1A1/LgBiT cells, 24 h incubation, luminescence", "method": "HEK293 clonal line with CRISPR KI HiBiT tag on CSNK1A1 and stably expressing LgBiT protein was obtained from Promega (Madison, WI). Cells were plated at 5000 cells per well using Multiflo (BioTek) in 384-well white solid bottom plates (Corning, 3570BC) in […] volume in DMEM media (DMEM, high glucose, HEPES, no phenol red (ThermoFisher Scientific, 21063029)) containing 10% FBS (Corning, 35-075-CV), 1% Penicillin/Streptomycin ((ThermoFisher Scientific, 15140-122), and 0.2% Endurazine (Nano-Glo Endurazine Live Cell Substrate (Promega, N2571)). Cells were incubated for 16 hours at 37C, 5% CO2. Depending on experiment 25 or 75 nL of a compound at 10 mM were added into the plate using an Echo®650 liquid handler (Labcyte) to achieve final concentration of […] in wells. Cells were incubated at 37° C., 5% CO2 for 24 hours followed by signal was read on Pherastar FSX using “LUM plus” optic module.\nData analysis was performed using Scinamic (Scinamic, Cambridge, MA).\nLuminescence response (R) was calculated by the formula: response=100*(S−N)/(P−N), where S is the signal of the well, N and P the mean negative and positive control values, respectively, of the same plate. The luminescence response was then fitted in Scinamic using a 3-parameter agonist logistic fit (hillslope=1, EC50>0, top/bottom unconstrained).\nDC50 data are reported in Table 2 for compounds in Table 1. In Table 2 below, According to the code, A represents a DC50 value of ≤0.1 μM, B represents a DC50 value>0.1 μM and ≤1 μM, C represents an DC50 value>1 μM."}, "[6]": {"tested_on": "LS180", "experiment": "GI50 growth inhibition, CyQUANT, LS180", "assay_type": "cell-based", "conditions": "Homo sapiens, LS180 cells, 120 to 168 hours", "method": "as §1, §2"}, "[7]": {"tested_on": "SKCO1", "experiment": "GI50 growth inhibition, CyQUANT, SKCO1", "assay_type": "cell-based", "conditions": "Homo sapiens, SK-CO-1, SKCO1 cells, 120 to 168 hours", "method": "as §1, §2"}}, "note": "pIC50: −log10 of the molar value.", "data": [{"smiles": "O=C1CCC(N2Cc3cc(NC(=O)c4cn(-c5ccccc5)cn4)ccc3C2=O)C(=O)N1", "note": "(centres unmarked) [Compound 109, N-(2-(2,6-dioxopiperidin-3-yl)-1-oxoisoindolin-5-yl)-1-phenyl-1H-imidazole-4-carboxamide]", "values": [{"measurement": "pIC50", "setting": "[1]", "result": "6.00 to 7.00"}, {"measurement": "GI50", "setting": "[2]", "result": "< 100", "unit": "nM"}, {"measurement": "GI50", "setting": "[3]", "result": "< 100", "unit": "nM"}, {"measurement": "GI50", "setting": "[4]", "result": "< 100", "unit": "nM"}, {"measurement": "DC50", "setting": "[5]", "result": "< 0.1", "unit": "µM"}, {"measurement": "GI50", "setting": "[6]", "result": "100 to 1000", "unit": "nM"}, {"measurement": "GI50", "setting": "[7]", "result": "< 100", "unit": "nM"}]}, {"smiles": "O=C1CCC(N2Cc3cc(NC(=O)C4CC(c5ccccc5)C4)ccc3C2=O)C(=O)N1", "note": "(centres unmarked) [Compound 117, N-(2-(2,6-dioxopiperidin-3-yl)-1-oxoisoindolin-5-yl)-3-phenylcyclobutanecarboxamide]", "values": [{"measurement": "pIC50", "setting": "[1]", "result": "6.00 to 7.00"}, {"measurement": "DC50", "setting": "[5]", "result": "< 0.1", "unit": "µM"}]}, {"smiles": "Cc1cc(CC(=O)Nc2ccc3c(c2)CN(C2CCC(=O)NC2=O)C3=O)ccc1Cl", "note": "(centres unmarked) [Compound 144, 2-(4-chloro-3-methylphenyl)-N-(2-(2,6-dioxopiperidin-3-yl)-1-oxoisoindolin-5-yl)acetamide]", "values": [{"measurement": "pIC50", "setting": "[1]", "result": "6.00 to 7.00"}, {"measurement": "DC50", "setting": "[5]", "result": "0.1 to 1", "unit": "µM"}]}, {"smiles": "Cc1c(C(=O)Nc2ccc3c(c2)CN(C2CCC(=O)NC2=O)C3=O)ncn1-c1ccccc1", "note": "(centres unmarked) [Compound 158, N-(2-(2,6-dioxopiperidin-3-yl)-1-oxoisoindolin-5-yl)-5-methyl-1-phenyl-1H-imidazole-4-carboxamide]", "values": [{"measurement": "pIC50", "setting": "[1]", "result": "6.00 to 7.00"}, {"measurement": "DC50", "setting": "[5]", "result": "< 0.1", "unit": "µM"}]}, {"smiles": "O=C1CCC(N2Cc3cc(NC(=O)c4ccc(C(F)(F)F)cc4)ccc3C2=O)C(=O)N1", "note": "(centres unmarked) [Compound 122, N-(2-(2,6-dioxopiperidin-3-yl)-1-oxoisoindolin-5-yl)-4-(trifluoromethyl)benzamide]", "values": [{"measurement": "pIC50", "setting": "[1]", "result": "6.00 to 7.00"}, {"measurement": "DC50", "setting": "[5]", "result": "< 0.1", "unit": "µM"}]}, {"smiles": "CC(C)c1ccccc1C(=O)Nc1ccc2c(c1)CN(C1CCC(=O)NC1=O)C2=O", "note": "(centres unmarked) [Compound 140, N-(2-(2,6-dioxopiperidin-3-yl)-1-oxoisoindolin-5-yl)-2-isopropylbenzamide]", "values": [{"measurement": "pIC50", "setting": "[1]", "result": "6.00 to 7.00"}, {"measurement": "DC50", "setting": "[5]", "result": "0.1 to 1", "unit": "µM"}]}, {"smiles": "O=C1CCC(N2Cc3cc(NC(=O)c4ncco4)ccc3C2=O)C(=O)N1", "note": "(centres unmarked) [Compound 120, N-(2-(2,6-dioxopiperidin-3-yl)-1-oxoisoindolin-5-yl)oxazole-2-carboxamide]", "values": [{"measurement": "pIC50", "setting": "[1]", "result": "6.00 to 7.00"}, {"measurement": "DC50", "setting": "[5]", "result": "< 0.1", "unit": "µM"}]}, {"smiles": "N#Cc1ccc(C(=O)Nc2ccc3c(c2)CN(C2CCC(=O)NC2=O)C3=O)cc1", "note": "(centres unmarked) [Compound 130, 4-cyano-N-(2-(2,6-dioxopiperidin-3-yl)-1-oxoisoindolin-5-yl)benzamide]", "values": [{"measurement": "pIC50", "setting": "[1]", "result": "6.00 to 7.00"}, {"measurement": "DC50", "setting": "[5]", "result": "0.1 to 1", "unit": "µM"}]}, {"smiles": "Cc1cccc(C(=O)Nc2ccc3c(c2)CN(C2CCC(=O)NC2=O)C3=O)c1", "note": "(centres unmarked) [Compound 139, N-(2-(2,6-dioxopiperidin-3-yl)-1-oxoisoindolin-5-yl)-3-methylbenzamide]", "values": [{"measurement": "pIC50", "setting": "[1]", "result": "6.00 to 7.00"}, {"measurement": "DC50", "setting": "[5]", "result": "< 0.1", "unit": "µM"}]}]}
